Experimental data from patent US20020143034A1, “Aminoalcohol derivatives and their use as beta 3 adrenergic agonists” (Fujisawa Pharmaceutical Co. Ltd., priority 1998, published 2002).

Tested on: anesthetized dog
Assay: Effect on the increase in intravesical pressure induced by carbachol in anesthetized dog
Assay type: in vivo
Settings: 0.32 mg/kg intra-duodenal, 30 minutes before carbachol (1.8 μg/kg); female Beagle dogs under halothane anesthesia; N = 2; Control 9.3
Protocol: Effect on the increase in intravesical pressure induced by carbachol in anesthetized dog
Female Beagle dogs weighing 8.0-15.0 kg were fasted for 24 hours and maintained under halothane anesthesia. A 12F Foley catheter was lubricated with water soluble jelly, inserted into the urethral orifice and advanced approximately 10 cm until the balloon tip was placed well inside the bladder. The balloon was then inflated with 5 ml of room air and catheter slowly withdrawn just part the first resistance that is felt at the bladder neck. Urine was completely drained out thought the catheter, and 30 ml of biological saline was infused. The catheter was connected to pressure transducer, and intravesical pressure was continuously recorded. The test compound was injected by intra-duodenal route at 30 minutes before the administration of carbachol (1.8 μg/kg).

## COc1ccc2c(Oc3ccc(C[C@@H](CO)NC[C@H](O)COc4ccccc4)cc3)ccnc2c1 [Example 78, 2(S)-2-[(2S)-2-hydroxy-3-(phenoxy)propylamino]-3-[4-(7-methoxyquinolin-4-yloxy)phenyl]propan-1-ol]
  Increase in intravesical pressure: 5.5 mmHg
